Data set [1] in a line: Stability in rat liver microsomes. Conditions: 60 min, 50 μM; for % Residual compound following incubation with liver microsomes: rat microsomes 1 mg/mL. The format is in vitro ADME. Here is the method:
(§1) Disappearance of parent Compound 1 was used to evaluate the in vitro metabolism thereof. Relative levels of unchanged Compound 1 were measured by HPLC-UV method 1. Residual Compound 1 is reported as percent difference from time zero or control. The HPLC-UV system was as follows:
(§2) Incubations with liver microsomes or cytosol were conducted in a final volume of 0.1 mL per incubation time point. […] DMSO (final DMSO concentration was 0.1%) was incubated at 37° C. from 0-60 min with pooled microsomal protein (1.0 mg/mL), suspended in incubation buffer (0.1 M potassium phosphate, pH 7.4, 5 mM MgCl2, and 0.1 mM EDTA). The microsomal reaction was initiated by the addition of NADPH (3 mM final concentration). Incubations with (a) no protein or (b) no NADPH served as controls. Reactions were terminated by the addition of 0.2 mL of stop solution (acetonitrile). The samples were vortex-mixed for 30 sec and then centrifuged at 10,000×g for 10 min. The supernatant was dried using a Labconco CentriVap concentrator and the dry residue reconstituted in water, transferred to an HPLC glass vial and analyzed by HPLC-UV method 1 (described above).
(§3) Metabolic stability of the proposed metabolites was conducted by incubating the chemically synthesized standards Compound 2, Compound 4 and Compound 3 as described above for Compound 1. When possible, formation of Compound 5 was verified by incubating samples with alkaline phosphatase (10 U) for 60 min at 37° C.

A short description of data set [2]: Stability in monkey liver microsomes. The format is in vitro ADME. Conditions: 60 min, 50 μM; for % Residual compound following incubation with liver microsomes: monkey microsomes 1 mg/mL. The protocol:
as §1, §2, §3

Data set [3] is described as follows: Incubation with monkey liver cytosol. The format is in vitro ADME. The following applies: monkey cytosol 1 mg/mL, 2 hours, 10 μM. The protocol:
(§4) Pooled liver cytosol (1.0 mg protein/mL) suspended in incubation buffer (0.1 M potassium phosphate, pH 7.4) was incubated for 2 hours at 37° C. with 10 μM Compound 1 from a stock solution in DMSO (final DMSO concentration was 0.1%); reaction was initiated with the addition of test article. Incubations with no protein served as control. Reactions were terminated by the addition of 0.1 mL of stop solution (acetonitrile). The samples were vortex-mixed for 30 sec and then centrifuged at 10,000×g for 10 min. The supernatant was dried using a Labconco CentriVap concentrator and the dry residue reconstituted in water, transferred to an HPLC glass vial and analyzed by HPLC-UV method 2 (described above).
as §3

The test system of another data set is pig liver esterase. The data set can be described thus: Incubation with pig liver esterase. It counts as in vitro ADME. The following applies: Esterase 14 U, 60 min, 10 μM. The protocol:
as §4, with “Pig” for “Pooled”, “esterase (14 U)” for “cytosol (1.0 mg protein/mL)”, “60 min” for “2 hours”, “controls.” for “control.”
as §3

The nature of data set [4]: Metabolite profile in rat urine. It counts as in vivo, male Sprague-Dawley rats. Conditions: for Percent of Dose, Urine 0-24 h: after [14C]Compound 1; for % AD, estimated: from single animal HPLC distribution and mean % AD. The protocol: Pooled urine samples were prepared for Groups 1C and 2C by mixing a fixed percent of the total volume for all four animals from the selected time points. For Group 1C, samples of the 1-, 2-, 6-, and 24-h collection intervals were pooled. For Group 2C, a pool of samples from all four animals was prepared for the 24 h collection intervals only. For 1-, 2-, and 6 h collection intervals, a urine sample of a single animal of Group 2A or 2B was used for analysis. All samples were brought to room temperature and vortexed briefly. The samples were diluted as necessary (2- to 20-fold) with appropriate aqueous mobile phase for the selected HPLC method. The pooled and diluted samples from the 24 h collection interval were centrifuged at 2040×g for 10 minutes. All other samples were analyzed without centrifugation. HPLC method 1 was used for HPLC profiling. Selected samples were analyzed by HPLC method 2 for comparison with the metabolite profile generated by microsomal and hepatocyte incubations (Examples 14 and 15) and with the metabolite profile of liver extracts.
Percent of the administered dose (% AD) for parent drug and each metabolite at each collection period=(% of the total radioactivity in the sample attributed to the metabolite)*(total radioactivity expressed as % of the administered dose, recovered during the corresponding collection period).
HPLC analyses of pooled urine samples of all time points were conducted for Group 1C. Metabolites R1, R2, R3, R4, R5, R6, R7 and R8 were characterized based on retention time.
For the PO dose group, a pooled urine sample from the 24-h collection time was analyzed. For 1-, 2-, and 6-h collection times, the majority of the samples had been used for radioanalysis. The remaining samples were insufficient for proportional pooling. Therefore, single animal samples of […] groups were used for HPLC profiling. Metabolites R^1, R^2, R^3, R^4, R^5, R^6, R^7 and R^8 were characterized based on retention time.
Table 50 contains data from single animal samples and pooled samples. To estimate overall distribution of urinary metabolites, it was assumed that the profile from a single animal is reflective of the overall average metabolite profile. Therefore, HPLC distribution data from single animals was used to calculate the percentage of administered dose excreted as various metabolites during the 1-, 2-, and 6-h collection intervals. Metabolites R1, R2, R3, R4, R5, R6, R7 and R8 were characterized based on retention time.

The nature of data set [5]: Excretion of administered dose in rat urine and feces. Conditions: IV; 24 h after [14C]Compound 1. It counts as in vivo, male Sprague-Dawley rats.
[6] abbreviates: PO dose urine, 1 h collection, single animal (#15, Group 2A).
Where [7] appears, read: PO dose urine, 2 h collection, single animal (#20, Group 2B).
[8] abbreviates: PO dose urine, 6 h collection, single animal (#20, Group 2B).
Setting [9] is: estimated profile table, group 2C (PO dose) urine, 24 h.
Setting [10] is: group 1C (IV dose) pooled urine, 1 h collection.
[11] abbreviates: group 1C (IV dose) pooled urine, 2 h collection.
Setting [12] is: group 1C (IV dose) pooled urine, 6 h collection.
Where [13] appears, read: group 1C (IV dose) pooled urine, 24 h collection.
[14] abbreviates: group 2C (PO dose) pooled urine, 24 h collection.

Regarding `CC(C)(CO)C(=O)SCCOP(N)(=O)OC[C@H]1O[C@@H](n2cnc3c(=O)[nH]c(N)nc32)[C@](C)(O)[C@@H]1O` (mixture of isomers) [Compound 3, {9-[(2R)2-C-methyl-β-D-ribo-furanosyl]-guanin}-5′-yl-O-(hydroxy-tert-butyl-S-acyl-2-thioethyl) phosphoramidate], the figures for the NADPH-dependent metabolism in data set [1] (rat liver microsomes) and in data set [2] (monkey liver microsomes) were 10% and 20-30%, respectively. Further, the “% Residual compound following incubation with liver microsomes” value is 90% in data set [1] (NADPH), 101% in data set [1] (No Cofactor), 76% in data set [2] (NADPH) and 89% in data set [2] (No Cofactor). Also, the “Residual compound following incubation with liver cytosol” value in data set [3] stood at 99%. Moreover, the “Residual compound following incubation with pig liver esterase” value with pig liver esterase is 97%.
For `C[C@@]1(O)[C@H](O)[C@@H](CO)O[C@H]1n1cnc2c(=O)[nH]c(N)nc21` [2′-C-methyl guanosine, 9-(2-C-methyl-β-D-ribofuranosyl)guanine, reference compound], the “Total excretion (% AD), urine” value is on record as 18.0 % AD in data set [4] (IV (1C)) and 2.56 % AD in data set [4] (PO (2C), urine data estimated). The entries for the “Percent of Dose, Urine 0-24 h” value in data set [4] (IV) and in data set [4] (Oral) were 18.0% of Dose and 2.56% of Dose, respectively. Moreover, the “% AD (percent of administered dose)” value is 0.004 % AD in data set [4] (setting [6]); 0.06 % AD in data set [4] (setting [7]); 0.24 % AD in data set [4] (setting [8]); 0.48 % AD in data set [4] (setting [10]); 1.79 % AD in data set [4] (setting [11]); 1.35 % AD in data set [4] (setting [12]). The “% AD (percent of administered dose)” value in data set [4] (setting [13]) is 14.4 % AD; in data set [4] (setting [14]), 2.14 % AD. Also, the “% HPLC (percent of HPLC peak area in the sample extract)” value is on record as 5.33% in data set [4] (setting [6]); 56.2% in data set [4] (setting [7]); 86.18% in data set [4] (setting [8]); 92.1% in data set [4] (setting [9]); 5.33% in data set [4] (estimated profile, group 2C (PO dose) urine, 1 h, single animal % HPLC distribution); 56.2% in data set [4] (estimated profile, group 2C (PO dose) urine, 2 h, single animal % HPLC distribution). Also, the “% HPLC (percent of HPLC peak area in the sample extract)” value is given as 86.18% in data set [4] (estimated profile, group 2C (PO dose) urine, 6 h, single animal % HPLC distribution); 2.12% in data set [4] (setting [10]); 35.1% in data set [4] (setting [11]); 57.7% in data set [4] (setting [12]); 86.7% in data set [4] (setting [13]); 92.1% in data set [4] (setting [14]). Moreover, the “% AD” value in data set [4] (setting [9]) was 2.14 % AD. For the same compound, the “% of total urinary excretion, estimated” value in data set [4] (estimated profile, group 2C (PO dose) urine) is 90.4%. For the same compound, the “% AD, estimated” value in data set [4] (estimated profile, group 2C (PO dose) urine, 1 h) is 0.001 % AD; in data set [4] (estimated profile, group 2C (PO dose) urine, 2 h), 0.02 % AD; in data set [4] (estimated profile, group 2C (PO dose) urine, 6 h) it was 0.40 % AD. Moreover, the “Total % AD, estimated” value in data set [4] (estimated profile, group 2C (PO dose) urine, total of all collections) is 2.56 % AD. Moreover, the “% of total urinary excretion” value in data set [4] (group 1C (IV dose) urine) worked out at 38.4%. The “Total % AD” value in data set [4] (group 1C (IV dose) urine, total of all collections) was 18.0 % AD. Further, the “% of the total urinary excretion” value in data set [4] (rat urine, IV dose 50 mg/kg) was 38.4%; in data set [4] (rat urine, PO dose 100 mg/kg), 90.4%. The “urinary component, % of the administered dose (% AD)” value in data set [4] (rat urine, IV dose 50 mg/kg, 0-24 h, 50 mg/kg) is listed as 18 % AD. The “urinary component, estimated % of the administered dose (% AD)” value in data set [4] (rat urine, PO dose 100 mg/kg, 0-24 h) was 2.6 % AD. Further, the “Percent of Dose, Total (urine, feces and liver)” value in data set [5] is 34.5% of Dose.
For the compound `C[C@@]1(O)[C@H](O)[C@@H](COP(=O)(O)O)O[C@H]1n1cnc2c(=O)[nH]c(N)nc21` [Compound 5, [(2R)-2-methyl-β-D-ribofuranosyl]guanine 5′-monophosphate], in data set [5], the “Percent of Dose, Total (urine, feces and liver)” value is 1.05% of Dose.
The same measure, in the same setting: the same measure for `C[C@@]1(O)[C@H](O)[C@@H](COP(=O)(O)OP(=O)(O)O)O[C@H]1n1cnc2c(=O)[nH]c(N)nc21` [Compound 6, [(2R)-2-methyl-β-D-ribofuranosyl]guanine 5′-diphosphate]: 0.29% of Dose.

The record behind these values is patent publication US20100003217A1, “Compounds and Pharmaceutical Compositions for the Treatment of Viral Infections” (priority 2008, published 2010).
